From ChEMBL document CHEMBL5604065, “ASAP - DENV-3 NS2B-NS3 protease fluorescence dose response” (2024)
“And” between values parts separate entries of the source, which are not always exact repeats. Equal values may be shown once.

Target: T1, NS3 protease (dengue virus type 3, UniProt A0A0B5JFF1)
T1 sequence (A0A0B5JFF1 whole entry): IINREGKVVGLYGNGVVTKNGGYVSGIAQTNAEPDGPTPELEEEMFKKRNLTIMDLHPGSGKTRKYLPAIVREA
Test: Functional biochemical assay to identify treatments for viral infectious disease that targets Dengue virus type 3 NS2B-NS3 protease. Utilizing a direct enzyme activity measurement method, reading the fluorescence intensity is used to characterize the relative potency of inhibitors as IC50.
Parameters: species or system Philippines/H87/1956

| Compound | IC50 |
| --- | --- |
| O=C(Nc1ccc2c(c1)CNC2)c1cc(Cl)cc(C(F)(F)F)n1 | 10.4 µM |
| CC(C)NC(=O)[C@H](Nc1ccc2c(c1)CNC2)c1cc(Cl)cc2[nH]c(-c3ccccc3)nc12 | 7.06 µM and 2.21 µM |
| O=C1Cc2c(cccc2C(=O)Nc2ccc3c(c2)CNC3)N1 | 14.2 µM |
| O=C(Nc1ccc2c(c1)CNC2)c1cc(Cl)cc2ccncc12 | 69.8 µM |
| O=C(Nc1ccc2c(c1)CNC2)c1cc(Br)cc2[nH]c(-c3ccccc3)nc12 | 1.47 µM |
| O=C(Nc1ccc2c(c1)CNC2)c1cc(F)c2[nH]ccc2c1 | > 99.5 µM |
| NCCc1csc2cc(C(=O)Nc3cc([C@H]4CCOC4)ccn3)ccc12 | > 99.5 µM |
